Laboratory results from patent US20150299120A1, “Spirohydantoin compounds and their use as selective androgen receptor modulators” (NOVARTIS AG, priority 2012, published 2015).
Like-named read-outs stand apart in the source and are kept apart here.

What was measured:
androgen receptor (AR) = biological target: T1, androgen receptor (AR) (Homo sapiens, UniProt P10275); test: Test 1: androgen receptor transcriptional activation (2XIDR17-luciferase) assay in transfected C2C12 cells; format: cell-based; conditions: for Emax: C2C12, C2C12 cells, percentage activity relative to 1 μM DHT, read-out: Biological activity (C2C12 cell) Emax % (converted); for % Biological activity (C2C12 cell) 100 nM: compound at 100 nM; for % Biological activity (C2C12 cell) 100 nM / % Biological activity (C2C12 cell) 5 μM: relative to 1 μM DHT; for % Biological activity (C2C12 cell) 5 μM: compound at 5 μM
T1 construct: transfecting C2C12 cells with a plasmid containing full-length AR; expressed in transfected cells; host or cells: mouse myoblastic C2C12 cells (ATCC CRL-1772), transiently transfected with AR-FL in pcDNA 3.1(+)
T1 sequence (P10275 1-920): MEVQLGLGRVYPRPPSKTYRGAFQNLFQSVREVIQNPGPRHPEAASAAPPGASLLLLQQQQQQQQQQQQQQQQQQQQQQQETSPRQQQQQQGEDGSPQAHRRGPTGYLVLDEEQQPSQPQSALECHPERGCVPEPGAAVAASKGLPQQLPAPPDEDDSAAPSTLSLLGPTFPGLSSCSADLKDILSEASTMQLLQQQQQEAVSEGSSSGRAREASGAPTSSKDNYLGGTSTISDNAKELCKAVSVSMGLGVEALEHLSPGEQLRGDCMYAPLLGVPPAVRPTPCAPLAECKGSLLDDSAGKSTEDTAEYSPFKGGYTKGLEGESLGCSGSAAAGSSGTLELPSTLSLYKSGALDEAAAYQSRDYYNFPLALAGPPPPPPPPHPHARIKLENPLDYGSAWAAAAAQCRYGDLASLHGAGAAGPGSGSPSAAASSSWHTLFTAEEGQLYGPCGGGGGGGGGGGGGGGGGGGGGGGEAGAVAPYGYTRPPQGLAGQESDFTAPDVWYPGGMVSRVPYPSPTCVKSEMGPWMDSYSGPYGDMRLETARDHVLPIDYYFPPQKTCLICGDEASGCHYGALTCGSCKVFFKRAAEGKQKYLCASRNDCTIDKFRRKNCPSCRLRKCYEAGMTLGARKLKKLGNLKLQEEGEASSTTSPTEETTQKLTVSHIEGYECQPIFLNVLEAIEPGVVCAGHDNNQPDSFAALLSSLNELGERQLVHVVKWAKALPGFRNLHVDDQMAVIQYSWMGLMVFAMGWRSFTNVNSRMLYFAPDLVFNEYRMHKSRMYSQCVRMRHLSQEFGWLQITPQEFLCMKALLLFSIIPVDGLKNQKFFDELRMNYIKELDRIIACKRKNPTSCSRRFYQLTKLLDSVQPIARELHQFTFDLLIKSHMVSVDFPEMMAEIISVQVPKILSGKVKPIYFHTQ
Experimental: A suitable assay to determine the ability of a ligand to transcriptionally activate androgen receptor (AR) is carried out using mouse myoblastic C2C12 cells. The assay involves transfecting C2C12 cells with a plasmid containing full-length AR along with an AR response element linked to luciferase (2XIDR17). The luminescence read-out at the end of the assay is measured using Victor 3 and is a direct measure of the transcriptional activity. The assay has been validated using the reference compound, BMS-564929, for which EC50 values have been reported in a similar set-up.
C2C12 cells were obtained from ATCC (Cat #CRL-1772) and maintained in DMEM modified to contain 4 mM L-glutamine, 4.5 g/L glucose, 1 mM sodium pyruvate and 1.5 g/L sodium bicarbonate and 10% FBS.
AR-FL in pcDNA 3.1(+) and 2XIDR17 in pGL4.26 plasmids prepared using Genelute plasmid miniprep kit from Sigma Cat #PLED35 Steadyglow Luciferase assay system Promega Cat #E2550
• C2C12 cells were seeded in a 96-well plate in DMEM (Dulbecco's Modified Eagle Medium) without phenol red and containing 10% CS-FBS (Charcoal-stripped Fetal Bovine Serum) at 8000 cells/well. • The next day, cells were transfected with an equimolar ratio of (Androgen Receptor-Full length) AR-FL and 2XIDR17-Luciferase at a total plasmid concentration of 200 ng/well using Lipofectamine 2000 following manufacturer's protocol. • For the transfection, 83 ng of AR-FL and 117 ng of 2XIDR17-Luciferase were in 12.5 μl of OptiMEM—Mix A. 0.4 μl of Lipofectamine 2000 was added to 12.5 μl of OptiMEM and incubated for 5 min at room temperature—Mix B. The two mixes A and B were mixed and incubated at room temperature for an additional fifteen minutes. An additional 50 μl of OptiMEM was added, gently mixed and this mixture was added to the cells in the 96-well plate. The above quantities are requirements per well of a 96-well plate. Master mixes were made for the entire plate, with proportional quantity of reagents being used. • 5 h after transfection, compounds were added to the wells in DMEM without phenol red and containing 10% CS-FBS, maintaining a final DMSO concentration of 0.5%. A typical dose response curve starts at 10 μM and includes a 7-point, log dilution, done in triplicates. • After overnight incubation with the compounds, 100 ul of working solution of Steadyglow reagent was added to the wells. • The plates were placed in a shaker for 15 min at the end of which the lysate containing luciferase was transferred to a white flat-bottom plate and read under a luminescence setting in Victor. • Background subtracted counts (Luminescence from DMSO control wells is considered the background) are used to calculate percentage activity, expressed relative to activity with 1 μM (Dihydrotestosterone) DHT (at least two sets of triplicates for 1 μM DHT are included per plate).
The EC50 curves for the compounds for 8 compound concentrations were fitted by the respective function using non-linear least-squares regression in Graphpad Prism 4.0 (Graphpad Software, San Diego, Calif., USA).

[1] = mouse myoblastic C2C12 cells transfected with full-length AR and 2XIDR17-luciferase, read-out: Biological activity (C2C12 cell) EC50
[2] = C2C12 cells, read-out: EC50 value in test 1

Row | SMILES | Emax (androgen receptor (AR)) [%] | EC50 (androgen receptor (AR); [1]) [nM] | melting point [°C] | other results
1 | Cc1c(N2C(=O)N(Cc3ccccn3)C3(CCCC3)C2=O)ccc(C#N)c1Cl [Example 8.4, 2-chloro-4-(2,4-dioxo-1-(pyridin-2-ylmethyl)-1,3-diazaspiro[4.4]nonan-3-yl)-3-methylbenzonitrile] | 96 | 48 | 179 | –
2 | Cc1c(N2C(=O)N(Cc3ccc(C#N)cc3)C3(CCCC3)C2=O)ccc(C#N)c1Cl [Example 8.0, 2-chloro-4-(1-(4-cyanobenzyl)-2,4-dioxo-1,3-diazaspiro[4.4]nonan-3-yl)-3-methylbenzonitrile] | 106 | 0.48 | 195 | –
3 | Cc1c(N2C(=O)N(C)C3(CCCC3=O)C2=O)ccc(C#N)c1Cl (racemic) [Example 1.1, 2-chloro-3-methyl-4-(1-methyl-2,4,6-trioxo-1,3-diazaspiro[4.4]nonan-3-yl)benzonitrile] | 60 | 847 | 161 | –
4 | Cc1ccc(CN2C(=O)N(c3ccc(C#N)c(Cl)c3C)C(=O)C23CCCC3)cn1 [Example 8.6, 2-chloro-3-methyl-4-(1-((6-methylpyridin-3-yl)methyl)-2,4-dioxo-1,3-diazaspiro[4.4]nonan-3-yl)benzonitrile] | – | 11 | 177 | –
5 | Cc1cc(CN2C(=O)N(c3ccc(C#N)c(Cl)c3C)C(=O)C23CCCC3)no1 [Example 8.1, 2-chloro-3-methyl-4-(1-((5-methylisoxazol-3-yl)methyl)-2,4-dioxo-1,3-diazaspiro[4.4]nonan-3-yl)benzonitrile] | 109 | 6 | 134 | –
6 | Cc1c(N2C(=O)N(C)C3(CCC3)C2=O)ccc(C#N)c1Cl [Example 12.0, 2-chloro-3-methyl-4-(5-methyl-6,8-dioxo-5,7-diazaspiro[3.4]octan-7-yl)benzonitrile] | – | – | 133 | % Biological activity (C2C12 cell) 100 nM (androgen receptor (AR); C2C12 cells): 67%; % Biological activity (C2C12 cell) 5 μM (androgen receptor (AR); C2C12 cells): 70%
7 | Cc1c(N2C(=O)OC3(CCCC3O)C2=O)ccc(C#N)c1Cl (stereo not drawn) | – | – | 150 | –
8 | Cc1c(N2C(=O)N(C)C3(CCC(F)C3)C2=O)ccc(C#N)c1Cl (single isomer, unassigned) | – | – | 162 | –
9 | Cc1c(N2C(=O)N(C)C3(CCC(=O)C3)C2=O)ccc(C#N)c1Cl (stereo not drawn) [Example 6.2, 2-chloro-3-methyl-4-(1-methyl-2,4,7-trioxo-1,3-diazaspiro[4.4]nonan-3-yl)benzonitrile] | – | – | 219 | % Biological activity (C2C12 cell) 100 nM (androgen receptor (AR); C2C12 cells): 9%; % Biological activity (C2C12 cell) 5 μM (androgen receptor (AR); C2C12 cells): 29%
10 | Cc1noc(C)c1CN1C(=O)N(c2ccc(C#N)c(Cl)c2C)C(=O)C12CCCC2 [Example 8.3, 2-chloro-4-(1-((3,5-dimethylisoxazol-4-yl)methyl)-2,4-dioxo-1,3-diazaspiro[4.4]nonan-3-yl)-3-methylbenzonitrile] | – | – | 109 | % Biological activity (C2C12 cell) 100 nM (androgen receptor (AR); C2C12 cells): 3%; % Biological activity (C2C12 cell) 5 μM (androgen receptor (AR); C2C12 cells): 19%
11 | Cc1c(N2C(=O)N(CCO)C3(CCCC3)C2=O)ccc(C#N)c1Cl [Example 9.7, 2-chloro-4-(1-(2-hydroxyethyl)-2,4-dioxo-1,3-diazaspiro[4.4]nonan-3-yl)-3-methylbenzonitrile] | 76 | 199 | 98 | –
12 | Cc1c(N2C(=O)N(C)C3(CCCC3)C2=O)ccc(C#N)c1Cl [Example 3.0, 2-chloro-3-methyl-4-(1-methyl-2,4-dioxo-1,3-diazaspiro[4.4]nonan-3-yl)benzonitrile] | 100 | 0.41 | 154 | –
13 | Cc1c(N2C(=O)N(CC3CCOC3)C3(CCCC3)C2=O)ccc(C#N)c1Cl (stereo not drawn) [Example 11.0, 2-chloro-4-(2,4-dioxo-1-((tetrahydrofuran-3-yl)methyl)-1,3-diazaspiro[4.4]nonan-3-yl)-3-methylbenzonitrile] | – | – | 70 | % Biological activity (C2C12 cell) 100 nM (androgen receptor (AR); C2C12 cells): 25%; % Biological activity (C2C12 cell) 5 μM (androgen receptor (AR); C2C12 cells): 48%
14 | Cc1c(N2C(=O)N(Cc3ccncc3)C3(CCCC3)C2=O)ccc(C#N)c1Cl [Example 8.5, 2-chloro-4-(2,4-dioxo-1-(pyridin-4-ylmethyl)-1,3-diazaspiro[4.4]nonan-3-yl)-3-methylbenzonitrile] | – | 30.7 | 76 | –
15 | Cc1c(N2C(=O)N(C)C3(CCCC3O)C2=O)ccc(C#N)c1Cl (stereo not drawn) | – | – | 188 | –
16 | Cc1c(N2C(=O)N(C)C3(CCCC3)C2O)ccc(C#N)c1Cl (stereo not drawn) [2-chloro-4-(4-hydroxy-1-methyl-2-oxo-1,3-diazaspiro[4.4]nonan-3-yl)-3-methylbenzonitrile] | – | – | – | EC50 (androgen receptor (AR); [2]): > 30000 nM
17 | Cc1c(N2C(=O)N(CCCCC#N)C3(CCCC3)C2=O)ccc(C#N)c1Cl [Example 9.6, 2-chloro-4-(1-(4-cyanobutyl)-2,4-dioxo-1,3-diazaspiro[4.4]nonan-3-yl)-3-methylbenzonitrile] | 90 | 45 | – | –
18 | Cc1c(N2CC3(CCCC3F)N(C)C2=O)ccc(C#N)c1Cl (stereo not drawn) [2-chloro-4-(6-fluoro-1-methyl-2-oxo-1,3-diazaspiro[4.4]nonan-3-yl)-3-methylbenzonitrile] | – | – | – | EC50 (androgen receptor (AR); [2]): > 30000 nM
19 | Cc1c(N2C(=O)N(C)C3(C=CCC3)C2=O)ccc(C#N)c1Cl (stereo not drawn) [1.5] | 66 | – | – | –
20 | Cc1ncc(CN2C(=O)N(c3ccc(C#N)c(Cl)c3C)C(=O)C23CCCC3)o1 [Example 8.10, 2-chloro-3-methyl-4-(1-((2-methyloxazol-5-yl)methyl)-2,4-dioxo-1,3-diazaspiro[4.4]nonan-3-yl)benzonitrile] | – | – | – | % Biological activity (C2C12 cell) 100 nM (androgen receptor (AR); C2C12 cells): 20%; % Biological activity (C2C12 cell) 5 μM (androgen receptor (AR); C2C12 cells): 66%
21 | Cc1c(N2C(=O)N(C)C3(CCC(F)C3)C2=O)ccc(C#N)c1Cl (stereo not drawn) [6.1] | 99 | – | – | –
22 | COC1N(c2ccc(C#N)c(Cl)c2C)C(=O)N(C)C12CCCC2 (stereo not drawn) [2-chloro-4-(4-methoxy-1-methyl-2-oxo-1,3-diazaspiro[4.4]nonan-3-yl)-3-methylbenzonitrile] | – | – | – | EC50 (androgen receptor (AR); [2]): > 30000 nM
23 | Cc1c(N2C(=O)N(C)C3(CCCC3O)C2=O)ccc(C#N)c1Cl (stereo not drawn) [1.0] | 80 | – | – | –
24 | Cc1c(N2C(=O)N(CCC3CCOCC3)C3(CCCC3)C2=O)ccc(C#N)c1Cl [2-chloro-4-(2,4-dioxo-1-(2-(tetrahydro-2H-pyran-4-yl)ethyl)-1,3-diazaspiro[4.4]nonan-3-yl)-3-methylbenzonitrile] | – | – | – | EC50 (androgen receptor (AR); [2]): > 30000 nM
